# Measured values taken from US11730717B1, “Melanin-inspired antimicrobial” (The Board of Regents for the Oklahoma Agricultural and …, priority 2020, dated 2023).
# Key:
# [1] = test system: methicillin resistant Staphylococcus aureus (MRSA) clinical isolate; assay: MIC by broth microdilution; format: cell-based; settings: clinical isolate of MRSA from an adult CF patient; broth culture, 18 h at 37° C.
# Experimental: The methicillin resistant Staphylococcus aureus (MRSA) and Pseudomonas aeruginosa (PA) strains used in this study are clinical isolates obtained from an adult CF patient at the Cystic Fibrosis Clinic at the OU Children's Hospital (Oklahoma City, Okla.). Escherichia coli (E. coli) and Enterococcus faecalis (E. faecalis) were obtained from American Type Culture Collection (ATCC). The strains were grown overnight with shaking at 37° C. (220 RPM) in 15 mL of Luria-Bertani (LB) broth. The overnight culture was sub-cultured the next day before use for the MIC experiments. All sub-cultures consisted of 1 mL of the overnight culture, mixed with 10 mL of Mueller Hinton broth. The working stock of the EIPE-1 and DBI was prepared by dissolving 1 mg of each in 1 mL of DMSO.
# The minimum inhibitory concentrations (MICs) were determined by the broth microdilution method, following the guidelines of the Clinical and Laboratory Standards Institute (CLSI). Two-fold serial dilutions of EIPE-1, DBI, and Arm (starting with 1 mg/mL) were prepared in a 100 μL volume in 96-well microtiter plates. The dilution series included DMSO as a negative control. The bacterial culture […] was normalized to an OD600 of 0.2 and was then added to each well. Plates were incubated with shaking at 220 RPM at 37° C., and the MIC was determined based on the lowest concentration at which no visible growth of the bacterial isolate was observed.
# In order to determine the MIC of EIPE-1 on MRSA, a culture of MRSA was grown overnight in Mueller Hinton broth (MHB) at 37° C., sub-cultured by a 1/100 dilution into MHB and dispensed into a 96 well culture block (900 μL of diluted culture in each well). To each well either DMSO or a serial dilution of EIPE-1 was added, then the culture was grown for 18 h at 37° C. The next day each well was tested for either growth or inhibition of growth by measuring of the OD^600 of the resulting culture. […] For comparison, the MIC of EIPE-1 was also determined against E. faecalis (8 μg/mL, 9 μM), confirming activity against Gram-positive bacteria.
# MRSA [2] = assay: Recoverable CFU after exposure to DBI; format: cell-based, Staphylococcus aureus; settings: MRSA after 4 h of growth with DBI; DMSO control average 1.78×10^8
# Experimental: To determine CFUs of PA and MRSA after exposure to DMSO, DBI, EIPE-1, Gentamicin or Methicillin, 10-fold serial dilutions were prepared in 96-well micro plates using multichannel pipettes. For each dilution, 25 ptL of each sample was pipetted onto a plate containing agar medium and incubated for 18 h at 37° C. The number of colonies for each dilution were counted and used to back calculate the number of bacteria per mL (CFU/mL) in each original bacterial culture.
# After 4 h of growth, the resulting cultures were plated onto Mannitol Salts Agar (MSA). Decreased bacterial growth and decreased fermentation of the Mannitol (retention of the reddish hue of the MSA plate) could be seen in the MRSA culture exposed to DBI (FIG. 1A) which was confirmed with decreased recoverable CFUs (FIGS. 1B and 1C).
# HeLa cells = assay: Cytotoxicity, LDH leakage assay; format: cell-based; settings: 24-hour exposure, 250 μg/mL (610 μM)
# Experimental: HeLa cells were cultured in 96-well plates at 37° C. and 5% CO2 in Roswell Park Memorial Institute (RMPI) 1640 medium with 5% Fetal Bovine Serum (FBS). Once HeLa cells reached 95% confluency, the media was replaced with media containing various concentrations of EIPE-1, DBI or DMSO for 24 hours. Cell cytotoxicity was measured using the lactate dehydrogenase (LDH) leakage assay. Results were compared to maximum values of lysed cells in control wells and were graphed as percent relative cytotoxicity using Prism 5.0.
# Host cell cytotoxicity against HeLa cells was examined for both DBI and EIPE-1 (FIG. 2B). LDH release was examined after 24-hour exposure to varying concentrations of DBI, DMSO and EIPE-1. […] Thus, EIPE-1 is relatively safe to use with respect to eukaryotic cells.
# MRSA [3] = assay: Live/Dead staining and fluorescent microscopy; format: cell-based, Staphylococcus aureus; settings: 16 μg/mL, 17 μM, 30 minutes; Syto 9 and propidium iodide
# Experimental: MRSA was grown overnight in 10 mL of LB broth, sub-cultured (5 mL of overnight culture added to 20 mL LB) and grown for 3 h. Bacterial culture (150 μL) were removed and transferred to a 1.5 mL centrifuge tube, which was treated with DMSO, EIPE-1 (0.01 mg/mL) or DBI (0.01 mg/mL) for 30 minutes. Equal amounts of the two dyes (SYTO 9 dye, 3.34 mM in DMSO), and propidium iodide (20 mM in DMSO) were mixed. Then 0.5 μL of the dye mixture was added to each tube of treated MRSA cultures. Wet mounts were prepared on glass slides for imaging live and dead MRSA, and Differential Interference Contrast (DIC) images were obtained using a Leica DMI600B fluorescent microscope. To determine the percentage of bacteria alive and dead, the total bacteria in each condition were counted in 20 fields of view and graphed using Prism 5.0.
# To address MRSA viability in response to EIPE-1 treatment, a Live/Dead staining and microscopy was utilized. MRSA was treated with either DBI or EIPE-1 (16 μg/mL, 17 μM each) for 30 minutes (DMSO was used as a negative solvent control) and then stained with the dyes, Syto™ 9 and propidium iodide.
# MRSA [4] = assay: Kirby-Bauer disc diffusion assay; format: cell-based, Staphylococcus aureus
# Experimental: The susceptibility of MRSA to EIPE-1 was determined by the Kirby-Bauer disc diffusion method. Using a cotton swab applicator, a lawn of the S. aureus clinical isolate was placed onto Mueller Hinton agar plates to cover the entire surface of the plate. Filter discs (size=6 mm) were added onto the bacterial lawn. EIPE-1, DBI, and DMSO (10 μL each) were then added onto the filter discs.
# The efficacy of compound EIPE-1 was tested by the Kirby-Bauer disc assay. The Kirby-Bauer disc assay assesses the sensitivity of bacteria to antimicrobial agents. If the bacteria are sensitive to the antimicrobial being tested, then a zone of inhibition of bacterial growth is seen around the filter disc containing the antimicrobial. The Kirby-Bauer disc assay was used to test the antimicrobial efficacy of EIPE-1 against MRSA. EIPE-1 was reconstituted at 1 mg/mL in DMSO and serially diluted (10^−1 to 10^−5) after which 10 μL of each dilution (and DMSO as a solvent control) was added to a separate disc on an LB plate inoculated with a lawn of bacteria. The plates were incubated at 37° C. for 24 h, and the resulting radii zone sizes around each disc were then measured.
# [5] = test system: Cryptococcus neoformans serotype A strain H99; assay: Antifungal MIC assay; format: cell-based
# Experimental: (§1) Cryptococcus neoformans serotype A strain H99 as well as Candida ablicans strain SC5314, were readily available in the lab. The stock of cells is stored at −80° C. to preserve the fungi and prevent contamination. The cells were grown and maintained in yeast extract-peptone-dextrose (YPD) media (Difco). Cryptococcus or Candida cells were incubated in YPD broth for 18 hrs at 30° C., in a shaking incubator. After the incubation period, they were washed three times in sterile phosphate-buffered saline (PBS) to remove all remaining residue of YPD. The cells were then quantified by using trypan blue dye exclusion in a hemocytometer.
# (§2) C. neoformans were suspended in RPMI with MOPS, 0.165M, at a concentration of 0.5×10^3 cells/mL. RPMI MOPS media was added to a 96-well plate in a volume of 100 μL to every well, with the exception of column 1. An additional 80 μL of RPMI MOPS was added to column 4 for a total of 180 μL/per well. Amphotericin B or EIPE-1 was added to columns […] with a volume of 20 μL at a concentration of 1 mg/mL. Contents were mixed, then serially diluted 100 μL down the plate until column 11. The last 100 μL was discarded, leaving column 12 blank. C. neoformans was added at a volume of 100 μL per well from column 4 to column 12, so the final volume of the wells was 200 μL. Plates were incubated at 35° C. in a humid incubator for 48 hrs.
# [6] = test system: Candida albicans strain SC5314; assay: Antifungal MIC assay; format: cell-based; settings: 35° C., 48 hrs, RPMI with MOPS
# Experimental: as §1
# as §2, with “C. albicans were suspended” for “C. neoformans were suspended”, “cells/mL. RPMI Mops media was” for “cells/mL. RPMI MOPS media was”, “μL/per well. EIPE-1 was” for “μL/per well. Amphotericin B or EIPE-1 was”, “blank. C. albicans was added” for “blank. C. neoformans was added”
compound,measurement,setting,value
"COC(=O)c1cc2c(Br)c(OC)c(OC)c(Br)c2n1C [DBI, methyl 4,7-dibromo-5,6-dimethoxy-1-methyl-1H-indole-2-carboxylate]",minimum inhibitory concentration (MIC),[1],could not be determined
same,recoverable CFUs (average),MRSA [2],1.19×10^7 CFU/mL
same,cytotoxicity (LDH release),HeLa cells,30%
same,"Live/Dead staining (green = intact membrane, red = damaged membrane)",MRSA [3],mostly stained green
CN(C)CCCOc1ccc(I)cc1 [arms],antimicrobial activity independent of the DBI core,MRSA [4],did not exhibit any antimicrobial activity
"C[C@@H]1[C@H](O)[C@@H](C)/C=C/C=C/C=C/C=C/C=C/C=C/C=C/[C@H](O[C@@H]2O[C@H](C)[C@@H](O)[C@H](N)[C@@H]2O)C[C@@H]2O[C@](O)(C[C@@H](O)C[C@@H](O)[C@H](O)CC[C@@H](O)C[C@@H](O)CC(=O)O[C@H]1C)C[C@H](O)[C@H]2C(=O)O [Amphotericin B, reference compound]",Minimum inhibitory concentration (MIC) for the isolate of C. neoformans,"[5]; 35° C., 48 hrs, RPMI with MOPS",0.6825 ± 0.2925 µg·mL
same,"minimum inhibitory concentration average, C. neoformans",[5]; across four experiments,0.6 µg/mL
same,Minimum inhibitory concentration (MIC) for the isolate of C. albicans,[6],0.5606 ± 0.1219 µg/mL
